The values that follow are results of earlier work, collected in paper PMC12344683, “N-alkyl and N-benzyl indoles are anti-SARS-CoV-2 agents and nsp13 inhibitors” (Journal of Enzyme Inhibition and Medicinal Chemistry, 2025).

SMILES strings stand for the structures. Where two headings read alike, the source gives them in different places. A value given as a limit tells only on which side of the number the result lay.

One data set concerns HCoV229E. On the set-up: method as in PMID 37562607. The note with it: cited from earlier work.
Data set [1] has as its target T1, SARS-CoV-2 nsp13 (Severe acute respiratory syndrome coronavirus 2, UniProt P0DTD1). The note with it: SARS-CoV-2 nsp13-associated ATPase activity; cited from earlier work.
Data set [2] deals with T1, SARS-CoV-2 nsp13. The following applies: SARS-CoV-2 nsp13-associated unwinding activity; read-out: IC50 unwinding; cited from earlier work.
Another data set deals with MERS-CoV. The following applies: cited from earlier work.
The subject of the next data set is SARS-CoV-2. The note with it: SARS-CoV-2 infected cells; read-out: EC50 SARS-CoV-2 replication; cited from earlier work.
For another data set, the system named is Vero E6-GFP cells. The note with it: cited from earlier work.

By EC50 is commonly meant the concentration at which the effect is half-maximal. As a reminder, the IC50 is the point on the concentration scale where inhibition reaches its midpoint. The CC50 is the concentration at which the toxic effect on the cells reaches its halfway point. Turning to `CC(C)=CCn1cc(/C=C/C(=O)/C=C(\O)C(=O)O)c2ccccc21` [compound 3], the results for the EC50 in the data set with HCoV229E, in the data set with MERS-CoV and in the data set on SARS-CoV-2 were 0.54 µM, 0.33 µM and 4.54 µM, respectively. In addition, the values for the IC50 at SARS-CoV-2 nsp13 [1] and at SARS-CoV-2 nsp13 [2] were 26.8 µM and 9.51 µM, respectively. Further, the CC50 with Vero E6-GFP cells is more than 264 µM.
Take `O=C(/C=C(\O)C(=O)O)/C=C/c1cn(Cc2ccccc2)c2ccccc12` [compound 4]: the EC50 with HCoV229E was 1.83 µM; in the data set with MERS-CoV, 6.32 µM; in the data set on SARS-CoV-2, 1.03 ± 0.24 µM. The figures for the IC50 on SARS-CoV-2 nsp13 [1] and on SARS-CoV-2 nsp13 [2] were 12.8 ± 1.3 µM and 12.7 ± 4.9 µM, respectively. Besides, the 50% cytotoxic concentration (CC50) with Vero E6-GFP cells was more than 264 µM.
